Laboratory results: patent US9113629B2, “4-amino-6-(4-substituted-phenyl)-picolinates and 6-amino-2-(4-substituted-phenyl)-pyrimidine-4-carboxylates and their use as herbicides” (DOW AGROSCIENCES LLC, priority 2013, dated 2015)
Like-named read-outs stand apart in the source and are kept apart here.

System: test plant species in Direct Seeded Rice
Experiment: Postemergence herbicidal activity in direct seeded rice (Table 13)
Format: in vivo
Details: for GR50 BRAPP / GR80 BRAPP / GR50 CYPSS / GR80 CYPSS / GR50 ECHSS / GR80 ECHSS / GR50 LEFSS / GR80 LEFSS / GR20 ORYSS / GR50 SCPJU / GR80 SCPJU / GR50 SEBEX / GR80 SEBEX: probit analysis; for GR20 ORYSS: ORYSS: Oryza sativa (crop); for pest or weed control at 35 g/ha / pest or weed control at 70 g/ha: post-emergence, 504 h
Source text: Seeds or nutlets of the desired test plant species were planted in a soil matrix prepared by mixing a loam soil (43 percent silt, 19 percent clay, and 38 percent sand, with a pH of about 8.1 and an organic matter content of about 1.5 percent) and river sand in an 80 to 20 ratio. The soil matrix was contained in plastic pots with a surface area of 139.7 cm^2. When required to ensure good germination and healthy plants, a fungicide treatment and/or other chemical or physical treatment was applied. The plants were grown for 10-17 d in a greenhouse with an approximate 14-h photoperiod which was maintained at about 29° C. during the day and 26° C. during the night. Nutrients and water were added on a regular basis and supplemental lighting was provided with overhead metal halide 1000-Watt lamps as necessary. The plants were employed for testing when they reached the second or third true leaf stage. A weighed amount, determined by the highest rate to be tested, of each test compound was placed in 25 mL glass vials and dissolved in a volume of 97:3 v/v acetone-DMSO to obtain 12× stock solutions. […] The concentrated stock solutions were added to the spray solutions so that the final acetone and DMSO concentrations were 16.2% and 0.5%, respectively. Spray solutions were diluted to the appropriate final concentrations with the addition of 10 mL of an aqueous mixture of 1.5% (v/v) Agri-dex crop oil concentrate. […] Compound requirements are based upon a 12 mL application volume at a rate of 187 L/ha. Formulated compounds were applied to the plant material with an overhead Mandel track sprayer equipped with […] nozzles calibrated to deliver 187 L/ha over an application area of 0.503 square meters (m^2) at a spray height of 18 inches (43 cm) above average plant canopy height. Control plants were sprayed in the same manner with the solvent blank. The treated plants and control plants were placed in a greenhouse as described above and watered by sub-irrigation to prevent wash-off of the test compounds. After 20-22 days, the condition of the test plants, compared with that of the untreated plants, was determined visually and scored on a scale of 0 to 100 percent where 0 corresponds to no injury and 100 corresponds to complete kill. By applying the well-accepted probit analysis as described by J. Berkson in Journal of the American Statistical Society, 48, 565 (1953) and by D. Finney in “Probit Analysis” Cambridge University Press (1952), the above data can be used to calculate GR20, GR50, GR80 and GR90 values, which are defined as growth reduction factors that correspond to the effective dose of herbicide required to kill or control 20 percent, 50 percent, 80 percent or 90 percent, respectively, of a target plant.

[1] = BRAPP: broadleaf signalgrass, Brachiaria platyphylla
[2] = CYPSS: sedge (Cyperus difformis, esculentus, iria)
[3] = ECHSS: barnyardgrass (Echinochloa crus-galli), junglerice (Echinochloa colonum)
[4] = LEFSS: sprangletop (Leptochloa chinensis, Leptochloa dubia)
[5] = SCPJU: Japanese bulrush, Scirpus juncoides
[6] = SEBEX: hemp sesbania, Sesbania exaltata
[7] = BRAPP: broadleaf signalgrass, Brachiaria platyphylla, 35 g ai/ha, read-out: Visual Growth Reduction (%) 21 Days After Application BRAPP
[8] = BRAPP: broadleaf signalgrass, Brachiaria platyphylla, 70 g ai/ha, read-out: Visual Growth Reduction (%) 21 Days After Application BRAPP
[9] = CYPSS: sedge (Cyperus difformis, esculentus, iria), 35 g ai/ha, read-out: Visual Growth Reduction (%) 21 Days After Application CYPSS
[10] = CYPSS: sedge (Cyperus difformis, esculentus, iria), 70 g ai/ha, read-out: Visual Growth Reduction (%) 21 Days After Application CYPSS
[11] = ECHSS: barnyardgrass (Echinochloa crus-galli), junglerice (Echinochloa colonum), 35 g ai/ha, read-out: Visual Growth Reduction (%) 21 Days After Application ECHSS
[12] = ECHSS: barnyardgrass (Echinochloa crus-galli), junglerice (Echinochloa colonum), 70 g ai/ha, read-out: Visual Growth Reduction (%) 21 Days After Application ECHSS
[13] = LEFSS: sprangletop (Leptochloa chinensis, Leptochloa dubia), 35 g ai/ha, read-out: Visual Growth Reduction (%) 21 Days After Application LEFSS
[14] = LEFSS: sprangletop (Leptochloa chinensis, Leptochloa dubia), 70 g ai/ha, read-out: Visual Growth Reduction (%) 21 Days After Application LEFSS
[15] = ORYSS: Oryza sativa, 35 g ai/ha, read-out: Visual Growth Reduction (%) 21 Days After Application ORYSS
[16] = ORYSS: Oryza sativa, 70 g ai/ha, read-out: Visual Growth Reduction (%) 21 Days After Application ORYSS
[17] = SCPJU: Japanese bulrush, Scirpus juncoides, 35 g ai/ha, read-out: Visual Growth Reduction (%) 21 Days After Application SCPJU
[18] = SCPJU: Japanese bulrush, Scirpus juncoides, 70 g ai/ha, read-out: Visual Growth Reduction (%) 21 Days After Application SCPJU
[19] = SEBEX: hemp sesbania, Sesbania exaltata, 35 g ai/ha, read-out: Visual Growth Reduction (%) 21 Days After Application SEBEX
[20] = SEBEX: hemp sesbania, Sesbania exaltata, 70 g ai/ha, read-out: Visual Growth Reduction (%) 21 Days After Application SEBEX

COC(=O)c1nc(-c2ccc(C(F)(F)F)c(F)c2)c(Cl)c(N)c1Cl [Compound 58]
Visual Growth Reduction (%) 21 Days After Application BRAPP (BRAPP: broadleaf signalgrass, Brachiaria platyphylla, 35 g ai/ha): G (0-29) | Visual Growth Reduction (%) 21 Days After Application BRAPP (BRAPP: broadleaf signalgrass, Brachiaria platyphylla, 70 g ai/ha): G (0-29) | GR50 BRAPP [1]: >70 g ai/ha | GR80 BRAPP [1]: >70 g ai/ha | Visual Growth Reduction (%) 21 Days After Application CYPSS (CYPSS: sedge (Cyperus difformis, esculentus, iria), 35 g ai/ha): A (95-100) | Visual Growth Reduction (%) 21 Days After Application CYPSS (CYPSS: sedge (Cyperus difformis, esculentus, iria), 70 g ai/ha): A (95-100) | GR50 CYPSS [2]: 4 g ai/ha | GR80 CYPSS [2]: 8 g ai/ha | Visual Growth Reduction (%) 21 Days After Application ECHSS (ECHSS: barnyardgrass (Echinochloa crus-galli), junglerice (Echinochloa colonum), 35 g ai/ha): G (0-29) | Visual Growth Reduction (%) 21 Days After Application ECHSS (ECHSS: barnyardgrass (Echinochloa crus-galli), junglerice (Echinochloa colonum), 70 g ai/ha): G (0-29) | GR50 ECHSS [3]: >70 g ai/ha | GR80 ECHSS [3]: >70 g ai/ha | Visual Growth Reduction (%) 21 Days After Application LEFSS (LEFSS: sprangletop (Leptochloa chinensis, Leptochloa dubia), 35 g ai/ha): G (0-29) | Visual Growth Reduction (%) 21 Days After Application LEFSS (LEFSS: sprangletop (Leptochloa chinensis, Leptochloa dubia), 70 g ai/ha): E (45-59) | GR50 LEFSS [4]: >70 g ai/ha | GR80 LEFSS [4]: >70 g ai/ha | GR20 ORYSS: >70 g ai/ha | Visual Growth Reduction (%) 21 Days After Application ORYSS (ORYSS: Oryza sativa, 35 g ai/ha): G (0-29) | Visual Growth Reduction (%) 21 Days After Application ORYSS (ORYSS: Oryza sativa, 70 g ai/ha): G (0-29) | Visual Growth Reduction (%) 21 Days After Application SCPJU (SCPJU: Japanese bulrush, Scirpus juncoides, 35 g ai/ha): A (95-100) | Visual Growth Reduction (%) 21 Days After Application SCPJU (SCPJU: Japanese bulrush, Scirpus juncoides, 70 g ai/ha): A (95-100) | GR50 SCPJU [5]: 5 g ai/ha | GR80 SCPJU [5]: 8 g ai/ha | Visual Growth Reduction (%) 21 Days After Application SEBEX (SEBEX: hemp sesbania, Sesbania exaltata, 35 g ai/ha): A (95-100) | Visual Growth Reduction (%) 21 Days After Application SEBEX (SEBEX: hemp sesbania, Sesbania exaltata, 70 g ai/ha): A (95-100) | GR50 SEBEX [6]: 2 g ai/ha | GR80 SEBEX [6]: 4 g ai/ha

COC(=O)c1nc(-c2ccc(I)cc2F)cc(N)c1Cl [Compound 159]
GR50 BRAPP [1]: 3 g ai/ha | GR80 BRAPP [1]: 8 g ai/ha | GR50 CYPSS [2]: 2 g ai/ha | GR80 CYPSS [2]: 5 g ai/ha | GR50 ECHSS [3]: 2 g ai/ha | GR80 ECHSS [3]: 4 g ai/ha | GR50 LEFSS [4]: 12 g ai/ha | GR80 LEFSS [4]: 19 g ai/ha | GR20 ORYSS: 12 g ai/ha | GR50 SCPJU [5]: 1 g ai/ha | GR80 SCPJU [5]: 1 g ai/ha | GR50 SEBEX [6]: 1 g ai/ha | GR80 SEBEX [6]: 1 g ai/ha | pest or weed control at 35 g/ha [7]: 95 to 100% | pest or weed control at 70 g/ha [8]: 95 to 100% | pest or weed control at 35 g/ha [9]: 95 to 100% | pest or weed control at 70 g/ha [10]: 95 to 100% | pest or weed control at 35 g/ha [11]: 95 to 100% | pest or weed control at 70 g/ha [12]: 95 to 100% | pest or weed control at 35 g/ha [13]: 95 to 100% | pest or weed control at 70 g/ha [14]: 95 to 100% | pest or weed control at 35 g/ha [15]: 45 to 59% | pest or weed control at 70 g/ha [16]: 60 to 74% | pest or weed control at 35 g/ha [17]: 95 to 100% | pest or weed control at 70 g/ha [18]: 95 to 100% | pest or weed control at 35 g/ha [19]: 95 to 100% | pest or weed control at 70 g/ha [20]: 95 to 100%

Nc1c(Cl)c(C(=O)O)nc(-c2ccc(Br)cc2)c1Cl [Compound 125]
GR50 BRAPP [1]: 46 g ai/ha | GR80 BRAPP [1]: >70 g ai/ha | GR50 CYPSS [2]: 4 g ai/ha | GR80 CYPSS [2]: 10 g ai/ha | GR50 ECHSS [3]: 40 g ai/ha | GR80 ECHSS [3]: >70 g ai/ha | GR50 LEFSS [4]: 43 g ai/ha | GR80 LEFSS [4]: >70 g ai/ha | GR20 ORYSS: 0 g ai/ha | GR50 SCPJU [5]: 1 g ai/ha | GR80 SCPJU [5]: 1 g ai/ha | GR50 SEBEX [6]: 1 g ai/ha | GR80 SEBEX [6]: 1 g ai/ha | pest or weed control at 35 g/ha [7]: 45 to 59% | pest or weed control at 70 g/ha [8]: 60 to 74% | pest or weed control at 35 g/ha [9]: 95 to 100% | pest or weed control at 70 g/ha [10]: 95 to 100% | pest or weed control at 35 g/ha [11]: 45 to 59% | pest or weed control at 70 g/ha [12]: 60 to 74% | pest or weed control at 35 g/ha [13]: 45 to 59% | pest or weed control at 70 g/ha [14]: 60 to 74% | pest or weed control at 35 g/ha [15]: 0 to 29% | pest or weed control at 70 g/ha [16]: 0 to 29% | pest or weed control at 35 g/ha [17]: 95 to 100% | pest or weed control at 70 g/ha [18]: 95 to 100% | pest or weed control at 35 g/ha [19]: 95 to 100% | pest or weed control at 70 g/ha [20]: 95 to 100%
